Measurements taken from patent US20200352947A1, “USE OF SEROTONERGIC DRUGS TO TREAT VIRUS-INDUCED THROMBOCYTOPENIA” (NATIONAL UNIVERSITY OF SINGAPORE, priority 2017, published 2020).

Key:
[1] = test system: DENV2-infected mice; test: Platelet counts (thrombocytopenia) in DENV2-infected WT mice; type: in vivo; conditions: mice, 10^6 pfu DENV2 IP; WAY-100135 3 mg/kg, ketanserin 8 mg/kg or sarpogrelate 3 mg/kg; 24 hours post-infection; n=5
Experimental: Platelet counts of DENV2 infected mice. Mice were infected via intraperitoneal route (IP) with 10^6 plaque forming units (pfu) and were given either vehicle (1% DMSO) or ketanserin 8 mg/kg IP. Blood was taken via cheek bleed 24 hours post-infection and platelet counts were measured using an automated hematology analyzer. DENV2 infection induces thrombocytopenia, but ketanserin treatment is able to prevent thrombocytopenia (n=5). Mean values are presented and error bars represent the SEM. P values were determined by Student's unpaired t test; ***P<0.001, ****P<0.0001.
Platelet counts of DENV2 infected mice. Mice were infected IP with 10^6 pfu of DENV2 and were given either vehicle, the 5HT1A antagonist WAY-100135, or either of the 5HT2A antagonists, ketanserin and sarpogrelate. Blood was taken via cheek bleed 24 hours post-infection and platelet counts were measured using an automated hematology analyzer. DENV2 infection induced thrombocytopenia that was able to be prevented through administration of serotonin receptor antagonists (n=5). Mean values are presented and error bars represent the SEM. P values were determined by one-way ANOVA; ***p<0.001, ****P<0.0001.
WT mice were infected via intraperitoneal route (IP) with 10^6 plaque forming units (pfu) of DENV2 and were given either vehicle (1% DMSO) or ketanserin (8 mg/kg) IP. Blood was taken via cheek bleed 24 hours post-infection and platelet counts were measured using an automated hematology analyzer.
One limitation of the experimental protocol in Examples 10 and 11 is that the vehicle used to deliver ketanserin in mice, DMSO, can itself interfere with platelet aggregation [Rosenblum, W. I. & El-Sabban. F. Stroke 13, 35-39 (1982)]. This difference can be observed by comparing the severity of thrombocytopenia in dengue-infected mice between FIGS. 1 and 10. Accordingly, newer serotonin receptor antagonists that are more soluble in saline were tested, to determine whether a similar effect is seen even without the confounding effects of DMSO. Mice were infected IP with 10^6 pfu of DENV2 and were given either vehicle, the 5HT1A antagonist WAY-100135 (3 mg/kg), or one of the 5HT2A antagonists ketanserin (8 mg/kg) or sarpogrelate (3 mg/kg). Blood was taken via cheek bleed 24 hours post-infection and platelet counts were measured using an automated hematology analyzer.

[2] = test system: DENV2-infected mice; test: Platelet counts and platelet activation in DENV2-infected mice pretreated with fluoxetine; type: in vivo; conditions: fluoxetine 20 mg/kg/day in drinking water for 2 weeks, then 10^6 pfu DENV2 IP; 24 and 72 hours; n=5
Experimental: Mice were administered fluoxetine (20 mg/kg/day) or vehicle via drinking water for 2 weeks. Mice were then infected with 10^6 pfu of DENV2 intraperitoneally. At 24 and 72 hours, blood was collected and platelet counts were measured. The reduction in platelet counts and increased platelet activation induced by DENV was prevented by fluoxetine treatment (n=5). Mean values are presented and error bars represent the SEM. P values were determined by one-way ANOVA; *P<0.05, **P<0.01, ***P<0.001, ****P<0.0001.
Fluoxetine, an SSRI, prevents the uptake of serotonin into platelets. Activation of platelets by DENV (FIG. 3), will result in the release of stored serotonin, which can act in a positive feedback loop. Mice were treated with fluoxetine (20 mg/kg/day) or vehicle in drinking water for 2 weeks and infected with 10^6 pfu of DENV IP. At 24 and 72 hours, blood was collected and platelet counts were measured. The reduction in platelet counts and increased platelet activation induced by DENV was inhibited by fluoxetine treatment (FIG. 15).

[3] = test system: human platelets; test: Platelet activation (CD41/CD62P flow cytometry) in stimulated human whole blood; type: cell-based; conditions: 15 min stimulation; CD41/CD62P flow cytometry; n=4
Experimental: (A) Whole blood from healthy human volunteers was isolated and stimulated with DENV2, serotonin, or DENV2+serotonin for 15 min. Cells were then fixed and stained for platelet markers CD41 and CD62P and analyzed by flow cytometry. DENV raised the activation levels of platelets. […] (B) Human whole blood was stimulated with DENV2, mast cells (MCs) or DENV2+MCs in the presence of vehicle or ketanserin (100 nM or 500 nM) for 15 min prior to assessment of platelet activation. […] Mean values are presented and error bars represent the SEM. P values were determined by one-way ANOVA; *P<0.05, ** P<0.01, ***P<0.001, ****P<0.0001, ns: non-significant.
Additionally, products from DENV-stimulated human mast cells promoted platelet activation, dependent on platelet 5HT2A receptor, since this effect was abolished by ketanserin (FIG. 9B). […] Furthermore, ketanserin is effective in reversing DENV-induced human platelet activation.

[4] = test system: DENV2-infected WT mice; test: Exogenous serotonin in DENV2-infected and uninfected WT mice; type: in vivo; conditions: serotonin 150 mg/kg daily
Experimental: (A) WT mice were infected with DENV2 (1×10^6 pfu i.p.) and treated with 150 mg/kg of serotonin or vehicle daily. […] (B) Blood of DENV infected mice treated with serotonin or vehicle was isolated and stained for platelet marker CD41 and activation marker CD62P and analyzed by flow cytometry. […] (C) Representative peripheral blood smears, day 3 post-infection, show platelet aggregation (dashed lines), which was more visually apparent following exogenous serotonin treatment compared to DENV infection. Some individual platelets are indicated by arrows. Scale bar=25 μm. Mean values are presented and error bars represent the SEM. P values were determined by Student's unpaired t test; *P<0.05, ns: non-significant.
WT mice were infected with DENV and administered exogenous serotonin to determine if there was an increase in platelet activation mediated by serotonin and if this would worsen thrombocytopenia in vivo.

[5] = test system: DENV2-infected Sash mice; test: Exogenous serotonin in DENV2-infected mast cell-deficient (Sash) mice; type: in vivo; conditions: serotonin 150 mg/kg daily
Experimental: (A) Sash mice were infected with DENV2 and treated with 150 mg/kg of serotonin or vehicle daily. Blood was taken for analysis 3 days post-infection. […] (C) Representative eosin and methylene blue staining of peripheral blood smears day 3 post-infection. Some individual platelets are indicated by arrows. Platelet aggregates are surrounded by a dashed line. Scale bar=25 μm. Means are presented with error bars representing the SEM. P values were determined by Student's unpaired t test; ns: non-significant, **P<0.01, ***P<0.001.

How did the “platelet counts (DENV2-induced thrombocytopenia)” value [1] turn out when COc1ccccc1N1CCN(C[C@@H](C(=O)NC(C)(C)C)c2ccccc2)CC1 [WAY-100135, (S)-N-tert-butyl-3-(4-(2-methoxyphenyl)-piperazin-1-yl)-2-phenylpropanamide] was run?
Its value is “prevented”.

How did the “increased platelet activation induced by DENV” value [2] turn out when CNCCC(Oc1ccc(C(F)(F)F)cc1)c1ccccc1 (stereo not shown) [fluoxetine] was run?
Its value is “inhibited”.

What about the “reduction in platelet counts induced by DENV” value [2] of the same compound?
The value was “inhibited”.

For COc1cccc(CCc2ccccc2OCC(CN(C)C)OC(=O)CCC(=O)O)c1 (stereo not shown) [sarpogrelate, 4-[1-(dimethylamino)-3-[2-[2-(3-methoxyphenyl)ethyl]phenoxy]propan-2-yl]oxy-4-oxobutanoic acid], which “platelet counts (DENV2-induced thrombocytopenia)” value [1] is on record?
The value was “prevented”.

What does the source list for NCCc1c[nH]c2ccc(O)cc12 [serotonin]?
platelet activation in human whole blood stimulated with DENV2+serotonin [3]: significantly enhanced platelet activation over control and DENV groups; platelet aggregates in peripheral blood films ([4]; DENV2-infected WT mice, day 3 post-infection): platelet aggregates increased; platelet activation (CD41/CD62P) in infected mice ([4]; DENV2-infected WT mice, n=6-12): further increased; platelet counts (thrombocytopenia) in infected mice ([4]; WT mice, DENV2 1×10^6 pfu i.p., 3 days post-infection): worsened thrombocytopenia during DENV infection compared to vehicle-treated mice; platelet activation (CD41/CD62P) in uninfected mice ([4]; uninfected WT mice): did not result in platelet activation in uninfected mice; platelet counts in uninfected mice ([4]; uninfected WT mice): did not affect platelet counts in uninfected WT mice; circulating platelet counts ([5]; 3 days post-infection): significantly reduced circulating platelet counts compared to vehicle (mock)-treated animals; platelet activation ([5]; 3 days post-infection, n=5-8): increased platelet activation in infected mice compared to vehicle treated controls; platelet aggregates in peripheral blood films ([5]; day 3 post-infection): increased platelet aggregates
